We go through five compounds from ChEMBL document CHEMBL4477199, “Design and synthesis of novel bicalutamide and enzalutamide derivatives as antiproliferative agents for the treatment of prostate cancer” (Eur J Med Chem, 2016).

Series [1] has as its system DU-145. The series is described as follows: Antiproliferative activity against human DU145 cells after 96 hrs by propidium iodide staining based fluorescence 2D monolayer assay. The format is functional, cell-based. Particulars: DU-145, 96 h.
For series [2] the following is noted: 33000 µM.
Description: Solubility in 100% DMSO at 33 mM at -20 degC
The conditions of series [3]: 96 h.
Description: Solubility in RPMI1640 culture medium at <30 uM incubated for 4 days by microscopic analysis
Series [4] deals with VCaP. The series is described as follows: Antiproliferative activity against human VCaP cells after 96 hrs by propidium iodide staining based fluorescence 2D monolayer assay. The format is functional, cell-based.
In series [5] the target is T1, Androgen receptor (Rattus norvegicus) (UniProt P15207).
T1 sequence (whole entry): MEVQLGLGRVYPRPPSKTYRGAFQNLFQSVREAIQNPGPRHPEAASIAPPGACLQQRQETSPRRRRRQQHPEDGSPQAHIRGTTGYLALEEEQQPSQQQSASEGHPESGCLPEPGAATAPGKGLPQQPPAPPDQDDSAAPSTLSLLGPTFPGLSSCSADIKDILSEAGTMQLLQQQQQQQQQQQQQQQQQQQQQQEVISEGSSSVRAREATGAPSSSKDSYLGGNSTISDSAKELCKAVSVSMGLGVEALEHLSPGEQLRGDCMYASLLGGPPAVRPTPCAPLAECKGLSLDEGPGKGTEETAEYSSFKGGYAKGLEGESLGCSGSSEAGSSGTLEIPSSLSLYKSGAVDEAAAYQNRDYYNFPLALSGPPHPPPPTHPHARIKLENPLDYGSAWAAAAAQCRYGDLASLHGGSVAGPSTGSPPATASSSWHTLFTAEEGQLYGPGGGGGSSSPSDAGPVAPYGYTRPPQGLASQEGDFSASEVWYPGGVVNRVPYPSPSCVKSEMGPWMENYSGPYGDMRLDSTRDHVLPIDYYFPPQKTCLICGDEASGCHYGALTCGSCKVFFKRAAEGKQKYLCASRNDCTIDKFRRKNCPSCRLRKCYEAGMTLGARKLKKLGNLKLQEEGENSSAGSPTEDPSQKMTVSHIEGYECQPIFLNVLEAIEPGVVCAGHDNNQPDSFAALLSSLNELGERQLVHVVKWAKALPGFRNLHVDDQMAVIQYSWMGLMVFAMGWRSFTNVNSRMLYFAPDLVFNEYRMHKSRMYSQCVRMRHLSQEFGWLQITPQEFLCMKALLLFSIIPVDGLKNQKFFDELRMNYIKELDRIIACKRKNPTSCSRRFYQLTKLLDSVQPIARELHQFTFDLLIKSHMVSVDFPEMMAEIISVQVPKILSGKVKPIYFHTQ
The series is described as follows: (§1) Antagonist activity at rat androgen receptor fused with DNA-binding domain of GAL4 expressed in AR-UAS-bla GripTite 293 cells assessed as inhibition of R1881-induced receptor activation preincubated for 30 mins followed by R1881 addition measured after 16 to 24 hrs by betalactamase reporter gene assay. Type of series: cell-based. (In general: Reporter assays use an easily measured gene product as a stand-in for the process of interest.)

For the next series, the target named is T2, Androgen receptor (Rattus norvegicus, UniProt P15207).
T2 sequence (P15207 whole entry): T1 sequence (whole entry)
The description is as §1. Type of series: cell-based.

Series [6] deals with LNCaP. The series is described as follows: Antiproliferative activity against human LNCAP cells after 96 hrs by propidium iodide staining based fluorescence 2D monolayer assay. Type of series: functional, cell-based.
The target of series [7] is T1, Androgen receptor (Rattus norvegicus). The series is described as follows: Antagonist activity at rat androgen receptor fused with DNA-binding domain of GAL4 expressed in AR-UAS-bla GripTite 293 cells assessed as inhibition of R1881-induced receptor activation at 1 uM preincubated for 30 mins followed by R1881 addition measured after 16 to 24 hrs by betalactamase reporter gene assay relative to control. The format is cell-based.

Series [8] has as its system CWR22R. The series is described as follows: Antiproliferative activity against human 22Rv1 cells after 96 hrs by propidium iodide staining based fluorescence 2D monolayer assay. Type of series: functional, cell-based. Particulars: 22Rv1, 96 h.
The test system of series [9] is HepG2. The series is described as follows: Cytotoxicity against human HepG2 cells assessed as reduction in cell viability after 72 hrs by MTT assay. Particulars: HepG2, 72 h. The format is functional, cell-based.
A short description of series [10]: Apparent permeability from basolateral to apical side in human Caco2 cells at 10 uM incubated for 120 mins by LC-MS/MS analysis. Particulars: Caco-2.
For series [11], the system named is HepG2. The series is described as follows: Cytotoxicity against human HepG2 cells assessed as reduction in cell viability at 100 uM after 72 hrs by MTT assay relative to control. Type of series: functional. A general note: Formazan colour is commonly taken as a measure of viable cells.
Series [12] can be described thus: Apparent permeability from apical to basolateral side in human Caco2 cells at 10 uM incubated for 120 mins by LC-MS/MS analysis. The conditions noted are these: Caco-2. On the technique in general: Caco-2 cells form a polarised layer with tight junctions and transporters.
Series [13] is described as follows: Metabolic stability in human liver microsomes at 3 uM preincubated with compound followed by NADPH addition measured after 5 to 45 mins by LC-MS/MS analysis. The format is ADME, Microsome.
A short description of series [14]: Efflux ratio of apparent permeability from basolateral to apical side over apical to basolateral side in human Caco2 cells at 10 uM incubated for 120 mins by LC-MS/MS analysis. Particulars: Caco-2.
The subject of series [15] is DU-145. The series is described as follows: Potency index, ratio of bicalutamide IC50 to compound IC50 for human DU145 cells. The format is functional.
The test system of series [16] is CWR22R. The series is described as follows: Potency index, ratio of (R)-bicalutamide IC50 to compound IC50 for human 22Rv1 cells. The format is functional.
The test system of series [17] is DU-145. The series is described as follows: Potency index, ratio of (R)-bicalutamide IC50 to compound IC50 for human DU145 cells. The format is functional.
Series [18] deals with VCaP. The series is described as follows: Potency index, ratio of bicalutamide IC50 to compound IC50 for human VCaP cells. The format is functional.
Series [19] concerns LNCaP. The series is described as follows: Potency index, ratio of bicalutamide IC50 to compound IC50 for human LNCAP cells. The format is functional.
The subject of series [20] is LNCaP. The series is described as follows: Potency index, ratio of (R)-bicalutamide IC50 to compound IC50 for human LNCAP cells. The format is functional.
The subject of series [21] is VCaP. The series is described as follows: Potency index, ratio of (R)-bicalutamide IC50 to compound IC50 for human VCaP cells. Type of series: functional.
The test system of series [22] is CWR22R. The series is described as follows: Potency index, ratio of bicalutamide IC50 to compound IC50 for human 22Rv1 cells. The format is functional.
Series [23] has as its system LNCaP. The series is described as follows: Antiproliferative activity against human LNCAP cells assessed as relative inhibition after 96 hrs by propidium iodide staining based fluorescence 2D monolayer assay. Type of series: functional, cell-based.
The subject of series [24] is CWR22R. The series is described as follows: Antiproliferative activity against human 22Rv1 cells assessed as relative inhibition after 96 hrs by propidium iodide staining based fluorescence 2D monolayer assay. Particulars: 22Rv1, 96 h. The format is functional, cell-based.
In series [25] the test system is DU-145. The series is described as follows: Antiproliferative activity against human DU145 cells assessed as relative inhibition after 96 hrs by propidium iodide staining based fluorescence 2D monolayer assay. Type of series: functional, cell-based. The conditions noted are these: DU-145, 96 h.
In series [26] the test system is LNCaP. The series is described as follows: Potency index, ratio of enzalutamide IC50 to compound IC50 for human LNCAP cells. The format is functional.
The subject of series [27] is VCaP. The series is described as follows: Antiproliferative activity against human VCaP cells assessed as relative inhibition after 96 hrs by propidium iodide staining based fluorescence 2D monolayer assay. Type of series: functional, cell-based.

Each structure is given as a SMILES string. pIC50: −log10 of the molar value. Some results are limits rather than exact numbers.

One may read the pIC50 as the IC50 on a negative log10 scale, so that one unit is a factor of ten. As usually defined, the inhibition is the drop in the measured response relative to a control, in per cent. Consider `C[C@](O)(CS(=O)(=O)c1ccc(OC(F)(F)F)cc1)C(=O)Nc1ccc(C#N)c(C(F)(F)F)c1`, for which the pIC50 in the series on DU-145 [1] was 4.50; in the series on VCaP [4], 4.51; on Androgen receptor, 6.11; with LNCaP [6], 4.72; in the series with CWR22R [8], 4.73. Moreover, the solubility entry in [2] and in [3] was “Soluble” in each case. The figures for the inhibition entry in series [5] and in series [7] were “Dose-dependent effect” and 53 to 69%, respectively.

As for `CC(O)(COc1ccc(C#N)c(F)c1)C(=O)Nc1ccc([N+](=O)[O-])c(C(F)(F)F)c1` (stereo unspecified), the pIC50 in the series on DU-145 [1] was 4.79; with VCaP [4] it was 4.91; on Androgen receptor, 7.31; in the series with LNCaP [6] it was 5.11; with CWR22R [8] it was 4.93. In addition, the solubility entry in series [2] and in [3] was “Soluble” throughout. Also, the inhibition result in series [5] is “Dose-dependent effect”; in series [7], 65%.

By AC50 is commonly meant the concentration at which the activity in the assay is half-maximal. As usually defined, the Papp B→A is how fast a substance crosses the layer from the basolateral side. The term Papp A→B denotes the apparent permeability from the apical to the basolateral side of a cell layer. Usually efflux ratio stands for a quotient of directional permeabilities that is used to spot active efflux. For `C[C@](O)(COc1ccc(C#N)cc1)C(=O)Nc1ccc(C#N)c(C(F)(F)F)c1` [ENOBOSARM], in the series on HepG2 [9], the AC50 is 32.8 µM. For the same compound, the minimal effective concentration in the series with HepG2 [9] (read-out: MEC) was 21.8 µM. The pIC50 in the series on DU-145 [1] was 4.35; with VCaP [4], 4.61; at Androgen receptor it was 7.44; with CWR22R [8], 4.61. In addition, the Papp B→A at 2 h, 10 µM in series [10] was 26.7 ×10⁻⁶ cm/s. Besides, in the series on HepG2 [11], the cell viability reduction is 79%. The Papp A→B at 2 h, 10 µM in series [12] amounted to 31.5 ×10⁻⁶ cm/s. For the same compound, in series [13], the Stability result is “Stable”. For the same compound, the efflux ratio at 2 h, 10 µM in series [14] worked out at 0.848.

With `C[C@](O)(CS(=O)(=O)c1ccc(C(F)(F)F)cc1)C(=O)Nc1ccc(C#N)c(C(F)(F)F)c1`, the “Ratio IC50” value is recorded as “<=2” with DU-145 [15]; 2 with CWR22R [16]; 2 in the series with DU-145 [17]; “<=2” in the series on VCaP [18]; “<=2” in the series with LNCaP [19]; 2 in the series with LNCaP [20]. Further, the figures for the “Ratio IC50” value in the series on VCaP [21] and with CWR22R [22] were 2 and “<=2”, respectively. The pIC50 is 4.57 with DU-145 [1]; 4.50 in the series on VCaP [4]; 6.11 on Androgen receptor; 4.76 with LNCaP [6]; 4.69 in the series on CWR22R [8]. Also, the solubility result in series [2] and in [3] was “Soluble” each time. In [5], the inhibition entry is “Dose-dependent effect”.

As usually defined, the IC70 is the concentration at which the effect reaches the 70% level. Take `CC1(C)C(=O)N(c2ccc(C(F)(F)F)cc2)C(=O)N1c1ccc([N+](=O)[O-])c(C(F)(F)F)c1`: the negative logarithm of the IC50 (pIC50) in the series with DU-145 [1] is ≤ 4.00; in the series on LNCaP [23], 5.79; with CWR22R [24], 4.38; in the series with VCaP [4], 4.14; at Androgen receptor, 7.10; in the series on LNCaP [6], 5.67. Also, the results for the pIC50 in the series with CWR22R [8], in the series on DU-145 [25] and in the series with VCaP [27] were ≤ 4.00, < 4.00 and 7.28, respectively. In addition, the IC70 in the series on DU-145 [1] is > 100 µM; in the series with LNCaP [23] it was 7.89 µM; in the series with CWR22R [24], > 100 µM; in the series with VCaP [4], > 100 µM; with LNCaP [6], 9.64 µM; in the series on CWR22R [8] it was > 100 µM. Further, the IC70 is > 100 µM with DU-145 [25] and 7.76 µM with VCaP [27]. Besides, the solubility entry in [2] and in series [3] was “Soluble” in each case. Besides, in series [5], the inhibition entry was “Dose-dependent effect”. The “Ratio IC50” value with LNCaP [26] was “<=5”.
